Measured values reported in the NIST ThermoML archive (doi:10.1016/j.jct.2019.05.011).
Numbers after ± are expanded uncertainties.

Test: activity coefficient (dimensionless); of the first substance listed, at infinite dilution; xn = mol fraction of the nth substance listed
Settings: 101.33 kPa, Liquid, Chromatography, x1 = 0

Row | SMILES | activity coefficient (313.15 K) | activity coefficient (323.15 K) | activity coefficient (333.15 K) | activity coefficient (343.15 K) | activity coefficient (298.15 K)
1 | C1CCCCCCC1 [cyclooctane] + CC(CC(C)(C)C)CP(=O)([O-])CC(C)CC(C)(C)C.CCCCCCCCCCCCCC[P+](CCCCCC)(CCCCCC)CCCCCC | 0.7 ± 0.05 | 0.71 ± 0.05 | 0.77 ± 0.05 | 0.79 ± 0.05 | –
2 | CC(C)=O [acetone] + CC(CC(C)(C)C)CP(=O)([O-])CC(C)CC(C)(C)C.CCCCCCCCCCCCCC[P+](CCCCCC)(CCCCCC)CCCCCC | 0.7 ± 0.05 | 0.72 ± 0.05 | 0.78 ± 0.05 | 0.83 ± 0.05 | –
3 | O [water] + CC(CC(C)(C)C)CP(=O)([O-])CC(C)CC(C)(C)C.CCCCCCCCCCCCCC[P+](CCCCCC)(CCCCCC)CCCCCC | 0.26 ± 0.03 | 0.27 ± 0.03 | 0.3 ± 0.03 | 0.31 ± 0.03 | –
4 | c1ccccc1 [benzene] + CC(CC(C)(C)C)CP(=O)([O-])CC(C)CC(C)(C)C.CCCCCCCCCCCCCC[P+](CCCCCC)(CCCCCC)CCCCCC | 0.42 ± 0.04 | 0.45 ± 0.04 | 0.49 ± 0.04 | 0.52 ± 0.04 | –
5 | CO [methanol] + CC(CC(C)(C)C)CP(=O)([O-])CC(C)CC(C)(C)C.CCCCCCCCCCCCCC[P+](CCCCCC)(CCCCCC)CCCCCC | 0.03 | 0.04 | 0.05 | 0.06 | –
6 | CC(C)CC(C)(C)C [2,2,4-trimethylpentane] + CC(CC(C)(C)C)CP(=O)([O-])CC(C)CC(C)(C)C.CCCCCCCCCCCCCC[P+](CCCCCC)(CCCCCC)CCCCCC | 0.92 ± 0.06 | 0.96 ± 0.06 | 1.04 ± 0.07 | 1.14 ± 0.07 | –
7 | CCC(C)=O [butanone] + CC(CC(C)(C)C)CP(=O)([O-])CC(C)CC(C)(C)C.CCCCCCCCCCCCCC[P+](CCCCCC)(CCCCCC)CCCCCC | 0.65 ± 0.04 | 0.67 ± 0.05 | 0.72 ± 0.05 | 0.77 ± 0.05 | –
8 | CC#N [acetonitrile] + CC(CC(C)(C)C)CP(=O)([O-])CC(C)CC(C)(C)C.CCCCCCCCCCCCCC[P+](CCCCCC)(CCCCCC)CCCCCC | 1.34 ± 0.09 | 1.4 ± 0.09 | 1.41 ± 0.09 | 1.46 ± 0.1 | –
9 | Cc1ccccc1C [1,2-dimethylbenzene] + CC(CC(C)(C)C)CP(=O)([O-])CC(C)CC(C)(C)C.CCCCCCCCCCCCCC[P+](CCCCCC)(CCCCCC)CCCCCC | 0.6 ± 0.04 | 0.62 ± 0.04 | 0.64 ± 0.04 | 0.67 ± 0.05 | –
10 | C1CCOC1 [tetrahydrofuran] + CC(CC(C)(C)C)CP(=O)([O-])CC(C)CC(C)(C)C.CCCCCCCCCCCCCC[P+](CCCCCC)(CCCCCC)CCCCCC | 0.43 ± 0.04 | 0.45 ± 0.04 | 0.49 ± 0.04 | 0.52 ± 0.04 | –
11 | c1ccsc1 [thiophene] + CC(CC(C)(C)C)CP(=O)([O-])CC(C)CC(C)(C)C.CCCCCCCCCCCCCC[P+](CCCCCC)(CCCCCC)CCCCCC | 0.35 ± 0.03 | 0.4 ± 0.03 | 0.41 ± 0.03 | 0.44 ± 0.04 | –
12 | CCc1ccccc1 [ethylbenzene] + CC(CC(C)(C)C)CP(=O)([O-])CC(C)CC(C)(C)C.CCCCCCCCCCCCCC[P+](CCCCCC)(CCCCCC)CCCCCC | 0.57 ± 0.04 | 0.6 ± 0.04 | 0.65 ± 0.04 | 0.68 ± 0.05 | –
13 | Cc1ccc(C)cc1 [1,4-dimethylbenzene] + CC(CC(C)(C)C)CP(=O)([O-])CC(C)CC(C)(C)C.CCCCCCCCCCCCCC[P+](CCCCCC)(CCCCCC)CCCCCC | 0.6 ± 0.04 | 0.63 ± 0.04 | 0.65 ± 0.04 | 0.69 ± 0.05 | –
14 | Cc1cccc(C)c1 [1,3-dimethylbenzene] + CC(CC(C)(C)C)CP(=O)([O-])CC(C)CC(C)(C)C.CCCCCCCCCCCCCC[P+](CCCCCC)(CCCCCC)CCCCCC | 0.63 ± 0.04 | 0.65 ± 0.04 | 0.67 ± 0.05 | 0.7 ± 0.05 | –
15 | Cc1ccccc1 [toluene] + CC(CC(C)(C)C)CP(=O)([O-])CC(C)CC(C)(C)C.CCCCCCCCCCCCCC[P+](CCCCCC)(CCCCCC)CCCCCC | 0.5 ± 0.04 | 0.51 ± 0.04 | 0.56 ± 0.04 | 0.59 ± 0.04 | –
16 | C1=CCCCC1 [cyclohexene] + CC(CC(C)(C)C)CP(=O)([O-])CC(C)CC(C)(C)C.CCCCCCCCCCCCCC[P+](CCCCCC)(CCCCCC)CCCCCC | 0.57 ± 0.04 | 0.59 ± 0.04 | 0.64 ± 0.04 | 0.68 ± 0.05 | –
17 | CC1CCCCC1 [methylcyclohexane] + CC(CC(C)(C)C)CP(=O)([O-])CC(C)CC(C)(C)C.CCCCCCCCCCCCCC[P+](CCCCCC)(CCCCCC)CCCCCC | 0.64 ± 0.04 | 0.68 ± 0.05 | 0.73 ± 0.05 | 0.78 ± 0.05 | –

Results, then the molecule that gave them:

Row | activity coefficient (313.15 K) | activity coefficient (323.15 K) | activity coefficient (333.15 K) | activity coefficient (343.15 K) | activity coefficient (298.15 K) | SMILES
18 | 0.77 ± 0.05 | 0.81 ± 0.05 | 0.88 ± 0.06 | 0.95 ± 0.06 | – | C=CCCCCC [1-heptene] + CC(CC(C)(C)C)CP(=O)([O-])CC(C)CC(C)(C)C.CCCCCCCCCCCCCC[P+](CCCCCC)(CCCCCC)CCCCCC
19 | – | – | – | – | 0.874 ± 0.056 | CCCCCC [hexane] + CCCCCCCCCCCCCCCC
20 | – | 0.04 | 0.06 | 0.07 ± 0.03 | – | CCO [ethanol] + CC(CC(C)(C)C)CP(=O)([O-])CC(C)CC(C)(C)C.CCCCCCCCCCCCCC[P+](CCCCCC)(CCCCCC)CCCCCC
21 | 0.91 ± 0.06 | 0.95 ± 0.06 | 1.08 ± 0.07 | 1.14 ± 0.07 | – | C=CCCCCCCC [1-nonene] + CC(CC(C)(C)C)CP(=O)([O-])CC(C)CC(C)(C)C.CCCCCCCCCCCCCC[P+](CCCCCC)(CCCCCC)CCCCCC
22 | 1.22 ± 0.08 | 1.28 ± 0.08 | 1.33 ± 0.09 | 1.39 ± 0.09 | – | CCCCCCCCCC [decane] + CC(CC(C)(C)C)CP(=O)([O-])CC(C)CC(C)(C)C.CCCCCCCCCCCCCC[P+](CCCCCC)(CCCCCC)CCCCCC
23 | 0.98 ± 0.06 | 1.04 ± 0.07 | 1.15 ± 0.07 | 1.18 ± 0.08 | – | C=CCCCCCCCC [1-decene] + CC(CC(C)(C)C)CP(=O)([O-])CC(C)CC(C)(C)C.CCCCCCCCCCCCCC[P+](CCCCCC)(CCCCCC)CCCCCC
24 | – | – | 0.11 ± 0.03 | 0.12 ± 0.03 | – | CCCCO [butan-1-ol] + CC(CC(C)(C)C)CP(=O)([O-])CC(C)CC(C)(C)C.CCCCCCCCCCCCCC[P+](CCCCCC)(CCCCCC)CCCCCC
25 | 1.04 ± 0.07 | 1.11 ± 0.07 | 1.23 ± 0.08 | 1.25 ± 0.08 | – | CCCCCCCCC [nonane] + CC(CC(C)(C)C)CP(=O)([O-])CC(C)CC(C)(C)C.CCCCCCCCCCCCCC[P+](CCCCCC)(CCCCCC)CCCCCC
26 | 0.78 ± 0.05 | 0.82 ± 0.05 | 0.9 ± 0.06 | 0.97 ± 0.06 | – | CCC(C)(C)C [2,2-dimethylbutane] + CC(CC(C)(C)C)CP(=O)([O-])CC(C)CC(C)(C)C.CCCCCCCCCCCCCC[P+](CCCCCC)(CCCCCC)CCCCCC
27 | – | 0.07 ± 0.03 | 0.08 ± 0.03 | 0.09 ± 0.03 | – | CCCO [propan-1-ol] + CC(CC(C)(C)C)CP(=O)([O-])CC(C)CC(C)(C)C.CCCCCCCCCCCCCC[P+](CCCCCC)(CCCCCC)CCCCCC
